For assay [1], the system named is HIV RT recovered from patient plasma. Description: Susceptibility to AZT-TP and d4T-TP using plasma derived RTs (Chain-termination reaction mixture). Particulars: compared to wild type control RT.
Experimental: (§2) • 1) Label the 4.5 ml plastic tubes to be used. Place them in a Nalgene box. Add 1 ml of sample (e.g. EDTA plasma from HIV infected individuals) to each labelled tube. Add 100 μl of a 66 mM solution of 5,5′-dithiobis-(2-nitrobenzoic acid) in buffered water, vortex and incubate the samples for one hour at room temperature.
(§3) The activity of the free plasma enzymes is destroyed during this procedure while the enzymes contained within the virions remain intact. The virions can then be purified from 5,5′-dithiobis-(2-nitrobenzoic acid), enzyme activity blocking antibodies and other substances that may interfere with quantification of viral RT by several separation procedures. The protocol below is based on the use of Fractogel® EMD TMAE Hicap gel. • 2) Suspend the separation gel carefully and transfer 1500 μl gel slurry to each sample pretreatment tube. • 3) Incubate the samples with the gel slurry for 90 minutes at room temperature with the tubes lying down horizontally on an orbital shaker. • 4) Label the desired amount of 10 ml plastic mini columns to identify the samples being analyzed. Mount the columns in a column washing device i.e. a Supelco Visiprep solid phase extraction vacuum manifold. Transfer the contents in the binding tubes to their corresponding columns. Before transfer vortex the tube briefly to evenly distribute the gel. • 5) When all the columns are filled, apply the vacuum and suck the gels dry. Turn off the vacuum and start the washing by filling each column with 9 ml buffer A. When all columns have been filled, apply the vacuum and suck the gels dry. • 6) Repeat step 5 three more times, giving a total of four washes. Suck the gels dry after each wash. After sucking the gels dry after the fourth wash, turn off the vacuum and proceed to step 7. • The washing step removes unbound RT blocking antibodies and 5,5′-dithiobis-(2-nitrobenzoic acid) from the system. • 7) Add to all dry gels 9 ml of conditioning buffer (B). After one minute apply vacuum and suck the gels dry. • 8) Repeat step 7. Before turning off the vacuum check that all conditioning buffer (B) has been removed from all gels. • 9) Lift off the upper part of the column wash device. Mount the tube holder with the labelled tubes into a clean container. Refit the upper part of the device. Control that the small tubings from each column go down in their corresponding tubes. • 10) Add 600 μl lysis buffer (C) to each column. Let the buffer stand in the column for five minutes. Then apply the vacuum slowly and suck the gels dry. This will in each tube give approximately 600 μl of virus lysate from the connected gel.
(§4) The RT activity recovered in the lysates from step 10 are essentially free from RT blocking antibodies, drugs and cellular polymerase activity, and can be quantified with a sensitive RT activity assay, i.e. the Cavidi HS-kit Lenti RT, which is based on the method described by Ekstrand et al [7]. 25 μl lysate obtained according to the current protocol is sufficient for determination of the RT activity in the sample. The Remaining 575 μl sample should be frozen at −70° C. or below for later use in the drug sensitivity test.
Assay [2] deals with HIV RT recovered from patient plasma (UniProt P04585, K690N/V695H, species not given). The assay is described as above. The conditions noted are these: plasma RT of patient code 2098; 5 fg/well.
The target of assay [3] is T1, HIV RT recovered from patient plasma (Human immunodeficiency virus type 1, UniProt P03366). Described as above. The conditions noted are these: 5 fg/well.
Experimental: as §2, §3, §4
Assay [4] deals with HIV RT recovered from patient plasma (UniProt P04585, M628L/E631D/D654N/A685G/V705I/Y768C/L797W/T802Y, species not given). The description is as above. Particulars: plasma RT of patient code 656 (resensitising 181C); 5 fg/well.
For assay [5], the target named is HIV RT recovered from patient plasma (UniProt P04585, T656N/L687I/K690N, species not given). The assay is described as above. The conditions noted are these: plasma RT of patient code 622; 5 fg/well.
Assay [6] has as its target HIV RT recovered from patient plasma (UniProt P04585, K657R/L797S, species not given). Described as above. Particulars: plasma RT of patient code 1030 (K70R, L210S); 5 fg/well.
The target in assay [7] is T2, recombinant HIV 1 RT wild type (Human immunodeficiency virus type 1 group M subtype B, UniProt P04585).
T2 construct: This variation was maximal for wild type RT; made in house
In words: Influence of the amount of RT used in the drug susceptibility tests (AZT-TP). The assay is classed as biochemical.

Assay [8] deals with T3, recombinant HIV 1 RT wild type BH10 (Human immunodeficiency virus type 1 group M subtype B, UniProt P03366). In words: RT inhibition assay for dT analogues (Chain-termination reaction mixture). Particulars: for fold increase of IC50: Recombinant RT control wild type RT (Table 4).
Assay [9] concerns the target recombinant HIV 1 RT wild type HxB2 (Human immunodeficiency virus type 1 group M subtype B, UniProt P04585). The assay is described as above.
Text: (§5) Regrettably an efficient phosphorolysis reaction is promptly reflected by a decrease in polymerization velocity and as a consequence also a decrease in detection sensitivity. Therfore this assay require more RT activity, compared to the corresponding assay for the NNRTIs.
In assay [10] the test system is recombinant HIV 1 RT M41L/T69S-SS/L210W/R211K/L214F/T215Y. The conditions noted are these: Recombinant RT control T69S→SS; compared to wild type control RT.
Text: as §5
Assay [11] deals with recombinant HIV 1 RT T215Y (Human immunodeficiency virus type 1 group M subtype B, UniProt P04585, T802Y). Description: RT inhibition assay for dT analogues (Chain-termination reaction mixture).
Text: as §5
Assay [12] has as its target recombinant HIV 1 RT M41L/T69S-SS/L210W/R211K/L214F/T215Y (Human immunodeficiency virus type 1 group M subtype B, UniProt P04585, INS655SS/L797W/L801F/M628L/R798K/T656S/T802Y). In words: biochemical.
Text: as §5
Assay [13] concerns the target recombinant HIV 1 RT L100I/K103N (Human immunodeficiency virus type 1 group M subtype B, UniProt P03366, K702N/L699I). Description: RT inhibition assay for non-nucleoside inhibitors (modified HS Lenti RT assay, RT Reaction mixture). The assay is classed as biochemical. Particulars: 1.7 fg/well, 19 hours, read-out: IC50 of indicated inhibitor in RT assay. From the text:
(§1) As template for the mutations was used the pETRT expression vector, which was constructed from the BH10 isolate.

For assay [14], the target named is T3, recombinant HIV 1 RT wild type BH10. Described as above. The assay is classed as biochemical. Particulars: 1.7 fg/well, 19 hours, read-out: IC50 of indicated inhibitor in RT assay.
Text: as §1

Assay [15] deals with recombinant HIV 1 RT L100I (Human immunodeficiency virus type 1 group M subtype B, UniProt P03366, L699I). Described as above. The assay is classed as biochemical. Particulars: 1.7 fg/well, 19 hours, read-out: IC50 of indicated inhibitor in RT assay.
Text: as §1

Assay [16] concerns the target recombinant HIV 1 RT K103N (Human immunodeficiency virus type 1 group M subtype B, UniProt P03366, K702N). The assay is described as above. The conditions noted are these: 1.7 fg/well, 19 hours, read-out: IC50 of indicated inhibitor in RT assay. The assay is classed as biochemical.
Text: as §1

Assay [17] concerns the target T1, HIV RT recovered from patient plasma. In words: Susceptibility to NNRTIs using plasma derived RTs. The conditions noted are these: 1.7 fg/well. The assay is classed as biochemical, HIV-1. The source says: Place them in a Nalgene box.
Suck the gels dry after each wash. […] Refit the upper part of the device.

Setting [18] is: IC50, plasma RT of patient code 48.
Where [19] appears, read: IC50, plasma RT of patient code 160.
The mark [20] stands for this setting: IC50, plasma RT of patient code 181.
[21] abbreviates: IC50, plasma RT of patient code 662.
Where [22] appears, read: IC50, plasma RT of patient code 807.
Setting [23] is: IC50, plasma RT of patient code 3507.

In the case of `Cc1cn(C2CC(N=[N+]=[N-])C(COP(=O)(O)OP(=O)(O)OP(=O)(O)O)O2)c(=O)[nH]c1=O` (stereo not shown) [AZT-TP, 3′-azido-2′,3′-deoxythymidine triphosphate], the “fold increase of IC50” value turned out to be 2.9 fold in assay [1] (patient code 48); 1.7 fold in [1] (patient code 160); 3.1 fold in [1] (patient code 181); 20 fold in [1] (patient code 393); 1.4 fold in assay [1] (patient code 622); 7.8 fold in [1] (patient code 656). Also, the “fold increase of IC50” value in [1] (patient code 662) amounted to 3.1 fold; in assay [1] (patient code 807) it was 3.1 fold; in assay [1] (patient code 1030), 20 fold; in [1] (patient code 1144), 3.5 fold; in [1] (patient code 1320), 8.3 fold; in assay [1] (patient code 2098), 2.2 fold. Further, the “fold increase of IC50” value came out at 0.8 fold in assay [1] (patient code 3507), 1.0 fold in [8] and 25 fold in assay [10]. Further, the IC50 – broadly, the point on the concentration scale where inhibition reaches its midpoint – in assay [2] turned out to be 350 nM; in [3] (setting [18]) it was 470 nM; in [3] (setting [19]), 270 nM; in [3] (setting [20]) it was 500 nM; in assay [3] (setting [21]), 500 nM; in [3] (setting [22]), 500 nM. The IC50 worked out at 130 nM in assay [3] (setting [23]); 1250 nM in assay [4]; 230 nM in assay [5]; 3200 nM in assay [6]; 130 nM in assay [7] (RT amount 2 fg/well); 220 nM in assay [7] (RT amount 162 fg/well). The IC50 in assay [8] came out at 160 nM; in [9], 190 nM; in assay [11], 690 nM; in assay [12] it was 4000 nM.
On to `CC(C)Nc1cccnc1N1CCN(C(=O)c2cc3cc(NS(C)(=O)=O)ccc3[nH]2)CC1` [Delaviridine, 1-(5-methanesulphonamido-1H-indol-2-yl-carbonyl)-4-[3-(1-methylethyl-amino)pyridinyl]piperazine monomethane sulphonate], for which the IC50 was above 100000 nM in assay [13]; 500 nM in assay [14]; 9500 nM in [15]; 3000 nM in assay [16]; 4540 nM in assay [17] (IC50, plasma RT of patient code 1177); 3600 nM in assay [17] (IC50, plasma RT of patient code 1412). The IC50 is 8210 nM in assay [17] (IC50, plasma RT of patient code 1424); 9540 nM in [17] (IC50, plasma RT of patient code 1572); 12700 nM in assay [17] (IC50, plasma RT of patient code 1639); 8970 nM in assay [17] (IC50, plasma RT of patient code 1885); 7510 nM in assay [17] (plasma RT of patient code 3980 (V179T/A/I)).
`Cc1cn([C@H]2C=C[C@@H](COP(=O)(O)OP(=O)(O)OP(=O)(O)O)O2)c(=O)[nH]c1=O` [d4T-TP, 2′,3′-didehydro-3′-deoxythymidine triphosphate]: the “fold increase of IC50” value is listed as 2.6 fold in assay [1] (patient code 48); 1.3 fold in assay [1] (patient code 160); 1.5 fold in assay [1] (patient code 181); 12.7 fold in assay [1] (patient code 393); 0.8 fold in assay [1] (patient code 622); 5.2 fold in assay [1] (patient code 656). Further, the “fold increase of IC50” value in assay [1] (patient code 662) turned out to be 2.0 fold; in assay [1] (patient code 807) it was 2.7 fold; in assay [1] (patient code 1030) it was 33 fold; in [1] (patient code 1320), 19.6 fold; in assay [1] (patient code 2098), 1.5 fold; in assay [1] (patient code 3507), 0.6 fold. In addition, the entries for the “fold increase of IC50” value in assay [8] and in assay [10] were 1.0 fold and 15 fold, respectively. Further, the IC50 in assay [2] was 48 nM; in assay [3] (setting [18]), 85 nM; in assay [3] (setting [19]) it was 43 nM; in assay [3] (setting [20]) it was 49 nM; in [3] (setting [21]), 65 nM; in assay [3] (setting [22]), 70 nM. Besides, the IC50 in assay [3] (setting [23]) was 20 nM; in [4], 170 nM; in assay [5], 28 nM; in assay [6] it was 1100 nM; in assay [8], 33 nM; in assay [9] it was 50 nM. For the same compound, the IC50 in [11] was 150 nM; in [12], 490 nM.

(Values after patent US7875422B2, “Viral drug susceptibility testing” (Cavidi AB, priority 2001, dated 2011).)
